# According to ChEMBL document CHEMBL3734723, “Synthesis and anticancer activity of 6-heteroarylcoumarins” (2015):
# Assays:
# Format in all cases: functional
# [1] = Growth inhibition of human RPMI8226 cells incubated for 48 hrs by sulforhodamine B assay; conditions: RPMI-8226, 48 h; for CC50: read-out: LC50 (the source's name)
# [2] = Growth inhibition of human HOP92 cells incubated for 48 hrs by sulforhodamine B assay; conditions: HOP-92, 48 h; for CC50: read-out: LC50 (the source's name)
# HT-29 = assay: Growth inhibition of human HT-29 cells incubated for 48 hrs by sulforhodamine B assay; conditions: HT-29, 48 h; for CC50: read-out: LC50 (the source's name)
# KM12 = assay: Growth inhibition of human KM12 cells incubated for 48 hrs by sulforhodamine B assay; conditions: KM12, 48 h; for CC50: read-out: LC50 (the source's name)
# [3] = Growth inhibition of human SF268 cells incubated for 48 hrs by sulforhodamine B assay; conditions: SF-268, 48 h; for CC50: read-out: LC50 (the source's name)
# [4] = Growth inhibition of human SNB75 cells incubated for 48 hrs by sulforhodamine B assay; conditions: SNB-75, 48 h; for CC50: read-out: LC50 (the source's name)
# U-251 [5] = assay: Growth inhibition of human U251 cells incubated for 48 hrs by sulforhodamine B assay; conditions: U-251, 48 h; for CC50: read-out: LC50 (the source's name)
# Malme-3M = assay: Growth inhibition of human MALME-3M cells incubated for 48 hrs by sulforhodamine B assay; conditions: for CC50: read-out: LC50 (the source's name)
# SK-MEL-2 = assay: Growth inhibition of human SK-MEL-2 cells incubated for 48 hrs by sulforhodamine B assay; conditions: SK-MEL-2, 48 h; for CC50: read-out: LC50 (the source's name)
# SK-MEL-28 = assay: Growth inhibition of human SK-MEL-28 cells incubated for 48 hrs by sulforhodamine B assay; conditions: SK-MEL-28, 48 h; for CC50: read-out: LC50 (the source's name)
# SK-MEL-5 = assay: Growth inhibition of human SK-MEL-5 cells incubated for 48 hrs by sulforhodamine B assay; conditions: SK-MEL-5, 48 h; for CC50: read-out: LC50 (the source's name)
# [6] = Growth inhibition of human UACC257 cells incubated for 48 hrs by sulforhodamine B assay; conditions: UACC-257, 48 h; for CC50: read-out: LC50 (the source's name)
# [7] = Growth inhibition of human UACC62 cells incubated for 48 hrs by sulforhodamine B assay; conditions: UACC-62, 48 h; for CC50: read-out: LC50 (the source's name)
# [8] = Growth inhibition of human IGROV1 cells incubated for 48 hrs by sulforhodamine B assay; conditions: IGROV-1, 48 h; for CC50: read-out: LC50 (the source's name)
# [9] = Growth inhibition of human RXF393 cells incubated for 48 hrs by sulforhodamine B assay; conditions: RXF 393, 48 h; for CC50: read-out: LC50 (the source's name)
# [10] = Growth inhibition of human UO31 cells incubated for 48 hrs by sulforhodamine B assay; conditions: UO-31, 48 h; for CC50: read-out: LC50 (the source's name)
# MCF7 = assay: Growth inhibition of human MCF7 cells incubated for 48 hrs by sulforhodamine B assay; conditions: MCF7, 48 h; for CC50: read-out: LC50 (the source's name)
# MDA-MB-231 = assay: Growth inhibition of human MDA-MB-231 cells incubated for 48 hrs by sulforhodamine B assay; conditions: MDA-MB-231, 48 h; for CC50: read-out: LC50 (the source's name)
# T47D = assay: Growth inhibition of human T47D cells incubated for 48 hrs by sulforhodamine B assay; conditions: for CC50: read-out: LC50 (the source's name)
# [11] = Growth inhibition of human CNS cancer cells after 48 hrs by sulforhodamine B assay; conditions: Cancer cell lines; for CC50: read-out: LC50 (the source's name)
# [12] = Growth inhibition of human melanoma cells after 48 hrs by sulforhodamine B assay; conditions: Melanoma cell; for CC50: read-out: LC50 (the source's name)
# [13] = Growth inhibition of human renal cancer cells after 48 hrs by sulforhodamine B assay; conditions: Cancer cell lines; for CC50: read-out: LC50 (the source's name)
# [14] = Growth inhibition of human breast cancer cells after 48 hrs by sulforhodamine B assay; conditions: Cancer cell lines; for CC50: read-out: LC50 (the source's name)
# [15] = Cytotoxicity against human RPMI8226 cells assessed as cell growth at 10 uM incubated for 48 hrs by sulforhodamine B assay; conditions: RPMI-8226, 48 h, read-out: Activity
# [16] = Cytotoxicity against human UO31 cells assessed as cell growth at 10 uM incubated for 48 hrs by sulforhodamine B assay; conditions: UO-31, 48 h, read-out: Activity
# [17] = Cytotoxicity against human PC3 cells assessed as cell growth at 10 uM incubated for 48 hrs by sulforhodamine B assay; conditions: PC-3, 48 h, read-out: Activity
# CCRF-CEM = assay: Cytotoxicity against human CCRF-CEM cells assessed as cell growth at 10 uM incubated for 48 hrs by sulforhodamine B assay; conditions: read-out: Activity
# [18] = Cytotoxicity against human SF295 cells assessed as cell growth at 10 uM incubated for 48 hrs by sulforhodamine B assay; conditions: SF-295, 48 h, read-out: Activity
# U-251 [19] = assay: Cytotoxicity against human U251 cells assessed as cell growth at 10 uM incubated for 48 hrs by sulforhodamine B assay; conditions: U-251, 48 h, read-out: Activity
# [20] = Cytotoxicity against human SF539 cells assessed as cell growth at 10 uM incubated for 48 hrs by sulforhodamine B assay; conditions: SF-539, 48 h, read-out: Activity
# [21] = Cytotoxicity against human SF268 cells assessed as cell growth at 10 uM incubated for 48 hrs by sulforhodamine B assay; conditions: SF-268, 48 h, read-out: Activity
# [22] = Cytotoxicity against human IGROV1 cells assessed as cell growth at 10 uM incubated for 48 hrs by sulforhodamine B assay; conditions: IGROV-1, 48 h, read-out: Activity
# A498 = assay: Cytotoxicity against human A498 cells assessed as cell growth at 10 uM incubated for 48 hrs by sulforhodamine B assay; conditions: A498, 48 h, read-out: Activity
# SN12C = assay: Cytotoxicity against human SN12C cells assessed as cell growth at 10 uM incubated for 48 hrs by sulforhodamine B assay; conditions: read-out: Activity
# [23] = Cytotoxicity against human Hs578T cells assessed as cell growth at 10 uM incubated for 48 hrs by sulforhodamine B assay; conditions: Hs-578T, read-out: Activity
# [24] = Cytotoxicity against human […] cells assessed as cell growth at 10 uM incubated for 48 hrs by sulforhodamine B assay; conditions: read-out: Activity
compound,measurement,setting,value
Cc1cc(=O)oc2c(C)c(O)c(-c3cc4ccc(F)cc4[nH]3)cc12,GI50,[1],1.9 µM
same,TGI,[1],6.19 µM
same,CC50,[1],> 100 µM
same,GI50,[2],0.95 µM
same,TGI,[2],4.17 µM
same,CC50,[2],29.9 µM
same,GI50,HT-29,10.2 µM
same,TGI,HT-29,23 µM
same,CC50,HT-29,52 µM
same,GI50,KM12,3.03 µM
same,TGI,KM12,12.4 µM
same,CC50,KM12,42 µM
same,GI50,[3],3.42 µM
same,TGI,[3],15 µM
same,CC50,[3],83.3 µM
same,GI50,[4],5.7 µM
same,TGI,[4],24 µM
same,CC50,[4],78.3 µM
same,GI50,U-251 [5],3.05 µM
same,TGI,U-251 [5],13.2 µM
same,CC50,U-251 [5],43.4 µM
same,GI50,Malme-3M,1.95 µM
same,TGI,Malme-3M,7.32 µM
same,CC50,Malme-3M,50.2 µM
same,GI50,SK-MEL-2,3.12 µM
same,TGI,SK-MEL-2,7.34 µM
same,CC50,SK-MEL-2,41.5 µM
same,GI50,SK-MEL-28,4.58 µM
same,TGI,SK-MEL-28,18.3 µM
same,CC50,SK-MEL-28,64.2 µM
same,GI50,SK-MEL-5,1.65 µM
same,TGI,SK-MEL-5,4.46 µM
same,CC50,SK-MEL-5,14.5 µM
same,GI50,[6],1.82 µM
same,TGI,[6],3.78 µM
same,CC50,[6],7.87 µM
same,GI50,[7],2.19 µM
same,TGI,[7],13.2 µM
same,CC50,[7],39.4 µM
same,GI50,[8],2.3 µM
same,TGI,[8],13.7 µM
same,CC50,[8],62.8 µM
same,GI50,[9],3.91 µM
same,TGI,[9],14.7 µM
same,CC50,[9],42.3 µM
same,GI50,[10],1.71 µM
same,TGI,[10],6.21 µM
same,CC50,[10],25.5 µM
same,GI50,MCF7,2.57 µM
same,TGI,MCF7,16.2 µM
same,CC50,MCF7,> 100 µM
same,GI50,MDA-MB-231,2.49 µM
same,TGI,MDA-MB-231,10.2 µM
same,CC50,MDA-MB-231,> 100 µM
same,GI50,T47D,2.39 µM
same,TGI,T47D,22.1 µM
same,CC50,T47D,> 100 µM
same,GI50,[11],3.89 µM
same,TGI,[11],17.5 µM
same,CC50,[11],72.9 µM
same,GI50,[12],2.64 µM
same,TGI,[12],9.71 µM
same,CC50,[12],30.8 µM
same,GI50,[13],2.94 µM
same,TGI,[13],10.8 µM
same,CC50,[13],43.1 µM
same,GI50,[14],2.67 µM
same,TGI,[14],14.2 µM
same,CC50,[14],89.3 µM
same,growth at 10 µM,[15],8.76%
same,growth at 10 µM,[16],21.6%
same,growth at 10 µM,[17],27.5%
same,growth at 10 µM,CCRF-CEM,43.1%
same,growth at 10 µM,[18],33%
same,growth at 10 µM,U-251 [19],27.9%
same,growth at 10 µM,[20],47.3%
same,growth at 10 µM,[21],48.7%
same,growth at 10 µM,[22],33.2%
same,growth at 10 µM,A498,52.5%
same,growth at 10 µM,SN12C,35.1%
same,growth at 10 µM,[23],42.1%
same,growth at 10 µM,[24],41.2%
Cc1cc(=O)oc2c(C)c(O)c(-c3ccnc(N)n3)cc12,GI50,[1],55.1 µM
same,TGI,[1],> 100 µM
same,CC50,[1],> 100 µM
same,GI50,[2],19.4 µM
same,TGI,[2],93.9 µM
same,CC50,[2],> 100 µM
same,GI50,HT-29,6.72 µM
same,TGI,HT-29,> 100 µM
same,CC50,HT-29,> 100 µM
same,GI50,KM12,> 100 µM
same,TGI,KM12,> 100 µM
same,CC50,KM12,> 100 µM
same,GI50,[3],12.3 µM
same,TGI,[3],> 100 µM
same,CC50,[3],> 100 µM
same,GI50,[4],5.08 µM
same,TGI,[4],92.9 µM
same,CC50,[4],> 100 µM
same,GI50,U-251 [5],8.59 µM
same,TGI,U-251 [5],> 100 µM
same,CC50,U-251 [5],> 100 µM
same,GI50,Malme-3M,> 100 µM
same,TGI,Malme-3M,> 100 µM
same,CC50,Malme-3M,> 100 µM
same,GI50,SK-MEL-2,88.1 µM
same,TGI,SK-MEL-2,> 100 µM
same,CC50,SK-MEL-2,> 100 µM
same,GI50,SK-MEL-28,> 100 µM
same,TGI,SK-MEL-28,> 100 µM
same,CC50,SK-MEL-28,> 100 µM
same,GI50,SK-MEL-5,3.56 µM
same,TGI,SK-MEL-5,> 100 µM
same,CC50,SK-MEL-5,> 100 µM
same,GI50,[6],> 100 µM
same,TGI,[6],> 100 µM
same,CC50,[6],> 100 µM
same,GI50,[7],17.2 µM
same,TGI,[7],> 100 µM
same,CC50,[7],> 100 µM
same,GI50,[8],15.8 µM
same,TGI,[8],> 100 µM
same,CC50,[8],> 100 µM
same,GI50,[9],4.7 µM
same,TGI,[9],59.9 µM
same,CC50,[9],> 100 µM
same,GI50,[10],2.59 µM
same,TGI,[10],> 100 µM
same,CC50,[10],> 100 µM
same,GI50,MCF7,2.61 µM
same,TGI,MCF7,> 100 µM
same,CC50,MCF7,> 100 µM
same,GI50,MDA-MB-231,> 100 µM
same,TGI,MDA-MB-231,> 100 µM
same,CC50,MDA-MB-231,> 100 µM
same,GI50,T47D,5 µM
same,TGI,T47D,> 100 µM
same,CC50,T47D,> 100 µM
same,GI50,[11],13.1 µM
same,TGI,[11],> 100 µM
same,CC50,[11],> 100 µM
same,GI50,[12],68.1 µM
same,TGI,[12],> 100 µM
same,CC50,[12],> 100 µM
same,GI50,[13],10.6 µM
same,TGI,[13],> 100 µM
same,CC50,[13],> 100 µM
same,GI50,[14],32 µM
same,TGI,[14],> 100 µM
same,CC50,[14],> 100 µM
same,growth at 10 µM,[15],30.5%
same,growth at 10 µM,[16],23%
same,growth at 10 µM,[17],60.3%
same,growth at 10 µM,CCRF-CEM,-36.8%
same,growth at 10 µM,[18],28.7%
same,growth at 10 µM,U-251 [19],56.3%
same,growth at 10 µM,[20],60.7%
same,growth at 10 µM,[21],62.6%
same,growth at 10 µM,[22],60.9%
same,growth at 10 µM,A498,42.9%
same,growth at 10 µM,SN12C,50.8%
same,growth at 10 µM,[23],51%
same,growth at 10 µM,[24],40.4%
